Laboratory results from PubChem BioAssay AID2060326 (Molecular Pharmacology Branch, DTP, NCI, 2025).
Where “and” joins values, the source holds several entries; their conditions need not be identical. Identical values can stand only once.

System: MDA-MB-468 multi-cell spheroids, viability
Experiment: Anticancer human tumor MDA-MB-468 cell line growth inhibition [IpAb];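 further: spheroids exposed to agents for seven days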
Conditions: for viability, T/C: stronger effect = lower value; active means viability on the fitted dose curve at most 10% of control; inactive means the rest
Excerpt: Combinatorial screen of targeted agents with ipatasertib and abemaciclib in multi-cell type tumor spheroids
A high-throughput screen of multi-cell type tumor spheroids was designed to identify active combinations of targeted small molecules and ipatasertib or abemaciclib. Complex spheroids include a stromal component modeled by human endothelial cells (HUVEC) and fibroblasts modeled by human mesenchymal stem cells (MSCs). The concentration ranges selected for each drug and investigational agent were based upon clinically achievable concentrations if the clinical Cmax of the agent was known.
Compounds. The drugs and investigational agents: ipatasertib (NSC767898), abemaciclib(NSC768073), selumetinib (NSC741078), trametinib (758246), adavosertib (NSC754352), everolimus (NSC733504), sapanisertib (NSC764658), vemurafenib (NSC761431), venetoclax (NSC766270), copanlisib (NSC809693), apelisib (NSC765974), palbociblib (NSC758247), vemurafenib (NSC761431), dabrafenib (NSC764134), ravoxertinib (NSC781343), BMS-387032 (NSC767048), sotorasib (NSC818433), talazoparib (NSC767125) and afursertib (NSC778305), were obtained from the National Cancer Institute (NCI) Developmental Therapeutics Program Chemical Repository. The FDA-approved anticancer drug set is available from the NCI Developmental Therapeutics Program. […] The stock solutions were prepared in dimethyl sulfoxide (DMSO, Sigma-Aldrich, St. Louis, MO, cat. D2650) at 800-fold the tested concentration and stored at -70 degrees C prior to their use. All drugs and investigational agents were tested over a range starting from a high concentration at or near the clinical Cmax and decreasing in half-log increments. If the clinical Cmax for an agent had not been determined, the highest concentration tested was 10 microM.
NCI60 Cell Culture. NCI60 cell lines were obtained from the NCI Developmental Therapeutics Program Tumor Repository. For each lot of cells, the Repository performed Applied Biosystems AmpFLSTR Identifiler testing with PCR amplification to confirm consistency with the published Identifier STR profile for each cell line. Cells were kept in continuous culture for no more than 20 passages. The optimal seeding densities for each of the cell lines at each time point assessed were determined prior to performing the concentration response studies. Briefly, the NCI60 human tumor lines were grown as monolayers in RPMI 1640 medium supplemented with 10% FBS and 2 mmol/L L-glutamine.
An additional 9 lines were from the NCI60 cell line panel including MDA-MB-231 breast carcinoma, MDA-MB-468 breast carcinoma, MCF7 breast carcinoma, Hs578T breast carcinoma, MALME-3M melanoma, SK-MEL-2 melanoma, SK-OV-3 ovarian carcinoma, DU-145 prostate carcinoma, PC-3 prostate carcinoma, all cell lines along with major genetic alterations are listed on Table 2. Pooled donor human umbilical vein endothelial cells (HUVEC, Lonza, cat. CC-2519) and human mesenchymal stem cells (hMSC, Lonza, cat. PT-2501) were purchased from Lonza (Walkersville, MD).
PDMR cell lines were grown in complete medium (DC medium): Dulbecco's modified Eagle's medium (DMEM)/F12 supplemented with 5% fetal bovine serum (FBS), 2 mM L-glutamine, 100 U/mL penicillin and 100 µg/ml streptomycin, 0.4 µg/ml hydrocortisone, 10 ng/ml epidermal growth factor (EGF) recombinant human protein, 24 µg/mL adenine, and 0.1 mg/mL primocin. During culture from frozen stock vials, PDMR cells were cultured in the same medium containing 10 µM Y-27632 (see Table 3). The PDCs were cultured in complete DMEM/F12 media without 10 microM Y-27632 dihydrochloride for at least two passages prior to the screen. The pooled donor HUVEC and hMSC were cultured in endothelial cell growth medium 2 (PromoCell, Heidelberg, Germany, cat. C-22011) and mesenchymal stem cell growth medium 2 (PromoCell, cat. C-28009), respectively. For all experiments, HUVEC and hMSC were used at passages </=5.
[…]

Cc1nc(NC(=O)N2CCCC2C(N)=O)sc1-c1ccnc(C(C)(C)C(F)(F)F)c1 (stereo not given)
inactive: viability, T/C (compound 0.0316 µM) 86.9% and 91.9% | viability, T/C (compound 0.1 µM) 93% and 82.5% | viability, T/C (compound 0.316 µM) 79.2% and 88.1% | viability, T/C (compound 1 µM) 64.3% and 95% | viability, T/C (compound 3.16 µM) 84% and 94.3% | viability, T/C (compound 10 µM) 25.2% and 31.6%
6020 nM and 6990 nM: IC50 (curve of compound)

Cn1cnc2c(F)c(Nc3ccc(Br)cc3Cl)c(C(=O)NOCCO)cc21
inactive: viability, T/C (compound 0.00949 µM) 87.3% and 84.9% | viability, T/C (compound 0.03 µM) 92.3% and 85% | viability, T/C (compound 0.0949 µM) 65.1% and 77.8% | viability, T/C (compound 0.3 µM) 72% and 68.5% | viability, T/C (compound 0.949 µM) 59.6% and 59.1% | viability, T/C (compound 3 µM) 39.2% and 26.2%
1560 nM and 1200 nM: IC50 (curve of compound)

Cn1ncc(Cl)c1-c1cc(C(=O)NC(CN)Cc2cccc(F)c2)sc1Cl (stereo not given)
330 nM and 460 nM: IC50 (curve of compound)
inactive: viability, T/C (compound 0.0316 µM) 82.3% and 88.3% | viability, T/C (compound 0.1 µM) 61.5% and 72.7% | viability, T/C (compound 0.316 µM) 55.5% and 61.2% | viability, T/C (compound 1 µM) 32.6% and 32.4% | viability, T/C (compound 3.16 µM) 15.9% and 11.8%
active: viability, T/C (compound 10 µM) 0.22% and 0.21%

Cn1nccc1Nc1nccc(-c2ccn(C(CO)c3ccc(Cl)c(F)c3)c(=O)c2)n1 (stereo not given)
5.12% and 13.2%: viability, T/C (compound 10 µM)
4400 nM and 4230 nM: IC50 (curve of compound)
inactive: viability, T/C (compound 0.0316 µM) 84.7% and 94.8% | viability, T/C (compound 0.1 µM) 91.9% and 98.6% | viability, T/C (compound 0.316 µM) 100% and 83.9% | viability, T/C (compound 1 µM) 84.2% and 81.8% | viability, T/C (compound 3.16 µM) 68.4% and 64.4%

Cn1ncnc1[C@H]1c2n[nH]c(=O)c3cc(F)cc(c23)N[C@@H]1c1ccc(F)cc1
inactive: viability, T/C (compound 0.000316 µM) 121% and 90.6% | viability, T/C (compound 0.001 µM) 105% and 98.7% | viability, T/C (compound 0.00316 µM) 113% and 81% | viability, T/C (compound 0.01 µM) 103% and 93.2% | viability, T/C (compound 0.0316 µM) 84.2% and 83.9% | viability, T/C (compound 0.1 µM) 68.8% and 65.7%
> 100 nM: IC50 (curve of compound)

Cn1cnc2c(F)c(Nc3ccc(Br)cc3Cl)c(C(=O)NOCCO)cc21 + CC(C)NCC(C(=O)N1CCN(c2ncnc3c2C(C)CC3O)CC1)c1ccc(Cl)cc1
active: viability, T/C (second compound 1 µM, first compound 3 µM) 3.5% | viability, T/C (second compound 3.16 µM, first compound 0.949 µM) 5.62% | viability, T/C (second compound 3.16 µM, first compound 3 µM) 0.63% | viability, T/C (second compound 10 µM, first compound 0.0949 µM) 7.27% | viability, T/C (second compound 10 µM, first compound 0.3 µM) 3.11% | viability, T/C (second compound 10 µM, first compound 0.949 µM) 0.84% | viability, T/C (second compound 10 µM, first compound 3 µM) 0.43%
inactive: viability, T/C (second compound 0.1 µM, first compound 0.00949 µM) 72.6% | viability, T/C (second compound 0.1 µM, first compound 0.03 µM) 72.2% | viability, T/C (second compound 0.1 µM, first compound 0.0949 µM) 63.4% | viability, T/C (second compound 0.1 µM, first compound 0.3 µM) 53.6% | viability, T/C (second compound 0.1 µM, first compound 0.949 µM) 41.2% | viability, T/C (second compound 0.1 µM, first compound 3 µM) 21.2% | viability, T/C (second compound 0.316 µM, first compound 0.00949 µM) 66.3% | viability, T/C (second compound 0.316 µM, first compound 0.03 µM) 49% | viability, T/C (second compound 0.316 µM, first compound 0.0949 µM) 46.7% | viability, T/C (second compound 0.316 µM, first compound 0.3 µM) 35% | viability, T/C (second compound 0.316 µM, first compound 0.949 µM) 28.8% | viability, T/C (second compound 0.316 µM, first compound 3 µM) 8.58% | viability, T/C (second compound 1 µM, first compound 0.00949 µM) 50.4% | viability, T/C (second compound 1 µM, first compound 0.03 µM) 38.7% | viability, T/C (second compound 1 µM, first compound 0.0949 µM) 41.4% | viability, T/C (second compound 1 µM, first compound 0.3 µM) 24.2% | viability, T/C (second compound 1 µM, first compound 0.949 µM) 16.6% | viability, T/C (second compound 3.16 µM, first compound 0.00949 µM) 34.8% | viability, T/C (second compound 3.16 µM, first compound 0.03 µM) 28.4% | viability, T/C (second compound 3.16 µM, first compound 0.0949 µM) 22.2% | viability, T/C (second compound 3.16 µM, first compound 0.3 µM) 18% | viability, T/C (second compound 10 µM, first compound 0.00949 µM) 13.7% | viability, T/C (second compound 10 µM, first compound 0.03 µM) 13.5%
54.8 nM: IC50 (curve of first compound, second compound 0.316 µM)
< 9.49 nM: IC50 (curve of first compound, second compound 1 µM) | IC50 (curve of first compound, second compound 3.16 µM) | IC50 (curve of first compound, second compound 10 µM)
435 nM: IC50 (curve of first compound, second compound 0.1 µM)
